Patent publication US8940697B2, “Compositions and methods for the treatment of myocardial ischemia/reperfusion injury with Annexin A1 short peptide” (Duke University, priority 2009, dated 2015)
Entries after “also recorded” stand apart in the source; their conditions may differ. Marks after values point to notes of the source that are not given here. No end group written: not given here.

Legend:
[1] = system: adult rat ventricular cardiomyocytes (ARVC); assay: Long-term culture survival of adult rat cardiomyocytes in normal or high glucose; assay type: cell-based; settings: for cardiomyocytes still alive, with rod-shaped morphology: day 26
Description: Cardiomyocytes isolated from adult rats were exposed to ANXAsp (FIG. 3C and FIG. 3D) or the N-terminal 25mer Ac2-26 (FIG. 3E and FIG. 3F) in either normal glucose (NG) or high glucose (HG), respectively, for 26 days, Untreated control cells in normoglycemic and hyperglycemic media are presented in FIG. 3A and FIG. 3B,
(§1) Cardiomyocytes isolated from adult rat in both normal and hyperglycemic culture media were exposed directly to ANXA1sp. […] The cardioprotective effects of ANXA1sp was further examined in hyperglycemic exacerbation of myocardial injury due to simulated ischemia/reperfusion in vitro. Adult rat ventricular cardiomyocytes (ARVCs) were treated with/without either ANXA1sp or Ac2-26 in both normo- and hyperglycemic culture media for 24 hours. Cells were washed with deoxygenated glucose-free DMEM medium in an anaerobic chamber that filtrated a gas mixture of 5% CO2-10% H2-85% N2 and incubated for 2 hours. After oxygen/glucose deprivation (OGD), cells were cultured under normoxic conditions in a 5% CO2 incubator for 24 hours. Cells without OGD were used as a positive control. Cell death was determined by trypan blue exclusive staining. Cells were counted in triplicate wells and in eight random fields in each well.

[2] = system: male SD rats; assay: Rat CPB/CA model of myocardial I/R injury (normo- and hyperglycemic); assay type: in vivo; settings: for NF-κB activity / IL-6 / TNF-α / Caspase-3 / MPO / Apoptosis / HFABP / cTnI: 3 mg/kg total; for NF-κB activity: myocardial DNA binding activity; for NF-κB activity / IL-6 / TNF-α / Caspase-3 / MPO / Apoptosis / HFABP: 24 h; for IL-6 / TNF-α: myocardial tissue; for Caspase-3 / MPO / Apoptosis: myocardium; for Apoptosis: TUNEL; for HFABP / cTnI: plasma; for cTnI: 24 h post-reperfusion
Method: Next, studies were carried out to determine the effectiveness of ANXA1sp on myocardial protection in vivo using a clinically-relevant rodent experimental model of surgical global myocardial ischemia/reperfusion injury. […] Rats were exposed to CPB for 15 minutes before ischemic/reperfusion injury was initiated (i.e., cardioplegic arrest was induced) and maintained for 45 minutes, followed by another 15 minutes of CPB. Animals were weaned from cardiopulmonary bypass and allowed to recover for 24 hours, at which point blood and left ventricular myocardial tissue were harvested for analysis. FIG. 5B is a graph showing the blood glucose levels in rats before and after ischemia. Acute hyperglycemia was induced using dextrose 25% (5 gm/kg) administered preoperatively 0.75 gm intraperitoneally, intraoperatively 0.25 gm in CPB prime and 0.5 gm/hr intravenously, and postoperatively 1 hour after weaning from CPB (intraperitoneally). Perioperative blood glucose levels were maintained at >300 mg/dl. Cardioplegic arrest was induced with cold (4:1) blood cardioplegia. Animals in the AXNA1sp treated group received a total of 3 mg/kg ANXA1sp in 3 equal doses administered before (intraperitoneally), during (intracoronary, mixed with cardioplegia solution), and after CPB (intraperitoneally), respectively. Control animals underwent an identical surgical procedure with vehicle instead of ANXA1sp.
In vivo study: with IACUC approval, male SD rats were randomly assigned to 4 groups in a 2×2 design (n=5/group): normo- and hyperglycemic (20 mM) cardioplegic arrest (CA), each treated with ANXA1sp or vehicle, respectively. All animals underwent 75 min of mild hypothermic CPB (33° C.) with 45 min of CA using blood cardioplegia. Treatment groups received ANXA1sp (Ac-QAW, GenScript, 3 mg/kg total) before (ip), during (with cardioplegia), and after CPB (ip) in equal doses, whereas CA control animals received saline. No animals received insulin. At 24 h post-reperfusion the following efficacy end-points were assessed by investigators blinded to the experimental group: 1) plasma myonecrosis biomarkers—cTnI and HFABP (rat specific ELISA, LifeDiagnostics); 2) myocardial apoptosis—cleaved caspase-3 (immunostaining and Western blot) and TUNEL assays; 3) myocardial inflammation—NF-kB DNA binding activity (ELISA, Panomics) and tissue levels of TNF-α and IL-6 (ELISA, ThermoScientific); and 4) myocardial neutrophil transmigration—myeloperoxidase (MPO) activity (ELISA, ThermoScientific).

[3] = system: adult rat ventricular cardiomyocytes (ARVC); assay: ARVC simulated I/R (oxygen-glucose deprivation/reoxygenation); assay type: cell-based; settings: for cTnI: 30 μM ANXA1sp, 2 h OGD + 24 h reoxygenation, supernatant; for HFABP / TNFα / Apoptosis / Cell Death: 30 μM, OGD/reoxygenation; for Apoptosis: ELISA; for Cell Death: trypan blue
Method: FIG. 4A. Cells were exposed to normal glucose (NG) (a, e), high glucose (HG) (b, f), HG+ANXA1sp (c, g) and HG+Ac2-26 (d, h), respectively, for 24 hours. Cells (e, f, g, h) were washed with deoxygenated glucose-free DMEM medium in an anaerobic chamber that contained a gas mixture of 5% CO2, 10% H2, and 85% N2 and incubated for 2 hours. After oxygen/glucose deprivation (OGD), ARVC cells were cultured in DMEM medium under normoxic conditions in a 5% CO2 incubator for 24 hours. Cells (a, b, c, d) without OGD were used as a control. Cell death was determined by trypan blue staining. FIG. 4B is a graph of the results obtained in FIG. 4A. Specifically, cells were counted in a total of eight random fields in triplicate wells. Values presented are means±SD; n=8.
as §1
In vitro study: ARVCs from male Sprague-Dawley (SD) rats were incubated in normal or high glucose (25 mM), with and without 30 μM ANXA1sp (Ac-QAW), or with a scrambled peptide (Ac-QWA), respectively for 24 h. Cells were subjected to 2 h oxygen-glucose deprivation (OGD), followed by 24 h reoxygenation in either normo- or hyperglycemic conditions. Cell death was determined histologically (trypan blue exclusion) and biochemically (supernatant levels of cTnI and HFABP, ELISA). Apoptosis was quantified using ELISA (Roche).

[4] = system: Male Yorkshire pigs; assay: Pig CPB/CA model of myocardial I/R injury; assay type: in vivo
Method: Pig CPB/CA: Male Yorkshire pigs (32-38 kg) were subjected to 120 min of mild hypothermic CPB, including 60 min of CA using 4:1 blood cardioplegia, and received either ANXA1sp (iv after anesthesia induction and with each dose of cardioplegia, 4 mg/kg total, CA_SP group, n=4) or vehicle (CA_CTRL, n=8). Efficacy endpoints and underlying mechanisms were assessed as described herein.

[5] = system: NIH 3T3 cells; assay: LPS-induced NIH 3T3 cells: NF-κB activity, IL-6, cell death; assay type: cell-based; settings: LPS+peptide vs LPS, 0, 1, 3 and 6 hours
Method: FIG. 2A is a graph showing the effect of ANXA1sp on NF-κB activity over time on NIH 3T3 cells activated with LPS alone and LPS+peptide. FIG. 2B is a graph showing the effect of ANXA1sp on interleukin-6 (IL-6) production over time by NIH 3T3 cells activated with LPS alone and LPS+peptide.
The ANXA1sp was next tested in LPS-induced NIH 3T3 cells to determine if NF-κB activity was inhibited. NIH 3T3 cells were exposed to LPS or LPS+ANXA1sp (LPS+Peptide) for 0, 1, 3 and 6 hours. Cell lysates were obtained and levels of NF-κB activity and IL-6 were measured by ELISA. Cell death was also measured by Trypan blue exclusion.

[6] = system: NF-kB activation in human pancreatic cancer cell lines; assay: NF-kB activation in human pancreatic cancer cell lines by ANXA1 N-terminus short peptides; assay type: cell-based; settings: compared with the other ANXA1 peptides of FIG. 1
Description: FIG. 1 is a graph showing the effect of ANXA1 N-terminus short peptides Ac-QAW, Ac-KQAW (SEQ ID NO:3), Ac-[…] (SEQ ID NO:10), Ac-FLK, Ac-EFLKQAW (SEQ ID NO:6) and Ac-VSEFLKQAW (SEQ ID NO:9) on NF-kB activation in human pancreatic cancer cell lines. Values presented are means±SD; n=5; *P<0.05 and #P<0.001 vs. control (0). Ac=acetylation.

[7] = 4 mg/kg, systemically and in the cardioplegia solution

Ac-Ala-Met-Val-Ser-Glu-Phe-Leu-Lys-Gln-Ala-Trp-Phe-Ile-Glu-Asn-Glu-Glu-Gln-Glu-Tyr-Val-Gln-Tyr-Val-Lys (Ac-AMVSEFLKQAWFIENEEQEYVQYVK) [Ac2-26, commercial annexin A1 N-terminal 25mer peptide, reference compound]
rod-shaped cardiomyocytes found ([1]; normal and hyperglycemic media, beyond day 14): no rod-shaped cardiomyocytes were found

Ac-Gln-Ala-Trp [ANXA1sp]
NF-κB activity ([2]; CAHG_SP: hyperglycemic): 1.5 ± 0.5 A.U. | IL-6 ([2]; CAHG_SP: hyperglycemic): 107.3 ± 15.5 ng/mg | TNF-α ([2]; CAHG_SP: hyperglycemic): 105.6 ± 13.3 ng/mg | Caspase-3 ([2]; CAHG_SP: hyperglycemic): 5.9 ± 1.4 A.U. | MPO ([2]; CAHG_SP: hyperglycemic): 467.2 ± 72.4 ng/mg | Apoptosis ([2]; CAHG_SP: hyperglycemic): 9.5 ± 1.2 % | HFABP ([2]; CAHG_SP: hyperglycemic): 12.4 ± 2.6 ng/mL | cTnI ([2]; CAHG_SP: hyperglycemic): 2.1 ± 0.5 ng/mL | NF-κB activity ([2]; CA_SP: normoglycemic): 0.8 ± 0.04 A.U. | IL-6 ([2]; CA_SP: normoglycemic): 38.2 ± 8.1 ng/mg | TNF-α ([2]; CA_SP: normoglycemic): 28.8 ± 6.7 ng/mg | Caspase-3 ([2]; CA_SP: normoglycemic): 1.9 ± 1.5 A.U. | MPO ([2]; CA_SP: normoglycemic): 104.8 ± 6.6 ng/mg | Apoptosis ([2]; CA_SP: normoglycemic): 2.4 ± 1.1 % | HFABP ([2]; CA_SP: normoglycemic): 1.0 ± 0.3 ng/mL | cTnI ([2]; CA_SP: normoglycemic): 1.0 ± 0.7 ng/mL | myocardial apoptosis (TUNEL) ([2]; Example 4: acute hyperglycemia, 3 mg/kg, FIG. 7B, 3 mg/kg): attenuated; also recorded: significantly decreased | myocardial MPO ([2]; Example 4: acute hyperglycemia, 3 mg/kg, FIG. 8, 3 mg/kg): attenuated; also recorded: significantly decreased | myocardial NF-κB DNA binding activity ([2]; Example 4: acute hyperglycemia, 3 mg/kg, FIG. 9, 3 mg/kg): attenuated; also recorded: significantly decreased | myocardial TNF-α ([2]; Example 4: acute hyperglycemia, 3 mg/kg, FIG. 10A, 3 mg/kg): attenuated; also recorded: significantly decreased | myocardial IL-6 ([2]; Example 4: acute hyperglycemia, 3 mg/kg, FIG. 10B, 3 mg/kg): attenuated; also recorded: significantly decreased | myocardial caspase-3 activity ([2]; Example 4: acute hyperglycemia, 3 mg/kg, Western blot, FIG. 7A, 3 mg/kg): attenuated; also recorded: significantly decreased | myonecrosis biomarker HFABP ([2]; Example 4: acute hyperglycemia, 3 mg/kg, vs CAHG, FIG. 6B, 3 mg/kg): attenuated; also recorded: significantly decreased | hyperglycemic exacerbation of perioperative myocardial injury ([2]; Example 4: cardioplegic arrest and acute hyperglycemia, 3 mg/kg): attenuated | myonecrosis biomarker cTnI ([2]; Example 4: cardioplegic arrest and acute hyperglycemia, 3 mg/kg, vs CAHG, FIG. 6A, 3 mg/kg): attenuated; also recorded: significantly decreased | in vivo interaction between ANXA1 and NF-κB p65 subunit ([2]; co-immunoprecipitation and confocal co-localization in cardiomyocytes, FIG. 11): significantly induces; also recorded: strongly induced | protection of cardiomyocytes from cell death ([1]; both normo- and hyperglycemic conditions): significantly protected cardiomyocytes from cell death | cardiomyocytes still alive, with rod-shaped morphology ([1]; high glucose): ~50% | cardioprotective effect compared with Ac2-26 ([1]; long-term culture, normal and high glucose): much stronger than that of the commercial annexin A1 N-terminal peptide, Ac2-26 | cardiomyocytes still alive, with rod-shaped morphology ([1]; normal glucose): about 70% | cardiomyocyte cell death (trypan blue) ([3]; 24 h pretreatment, 2 h OGD, 24 h normoxia, Example 3): significantly decreased cardiomyocyte cell death | cTnI ([3]; HG_SP: high glucose (25 mM)): 7.8 ± 0.6 ng/mL | HFABP ([3]; HG_SP: high glucose (25 mM)): 2.0 ± 0.4 ng/mL | TNFα ([3]; HG_SP: high glucose (25 mM)): 1.2 ± 0.1 ng/mg protein | Apoptosis ([3]; HG_SP: high glucose (25 mM)): 0.7 ± 0.2 A.U. | Cell Death ([3]; HG_SP: high glucose (25 mM)): 40.5 ± 11.1 % | cTnI ([3]; NG_SP: normal glucose): 5.7 ± 0.4 ng/mL | HFABP ([3]; NG_SP: normal glucose): 2.4 ± 1.4 ng/mL | TNFα ([3]; NG_SP: normal glucose): 0.84 ± 0.1 ng/mg protein | Apoptosis ([3]; NG_SP: normal glucose): 0.7 ± 0.2 A.U. | Cell Death ([3]; NG_SP: normal glucose): 38.6 ± 5.9 % | cardioprotective efficacy compared with Ac2-26 ([3]; OGD, high glucose, Example 3, FIG. 4): stronger cardioprotective efficacy than Ac2-26 | hemodynamics ([4]; 4 mg/kg total): improved hemodynamics | animals requiring inotropic or vasopressor support ([4]; 4 mg/kg total, support substantial in all control animals): none requiring either inotropic or vasopressor support | left ventricular dysfunction [4, 7]: significant reduction | postoperative arrhythmias [4, 7]: significant reduction | vasoplegia [4, 7]: significant reduction | Apoptosis ([4]; CA_SP: 4 mg/kg total): 5.9 ± 2.3 % | Epinephrine (inotropic support required) ([4]; CA_SP: 4 mg/kg total): 0** mcg/6 hs | Heart Rate ([4]; CA_SP: 4 mg/kg total): 135 ± 18 beats/min | NF-κB activity ([4]; CA_SP: 4 mg/kg total): 0.8 ± 0.04 A.U. | SVI (stroke volume index) ([4]; CA_SP: 4 mg/kg total): 36 ± 5 ml/m^2 | TNF-α ([4]; CA_SP: 4 mg/kg total): 28.8 ± 6.7 ng/mg protein | Vasopressin (vasopressor support required) ([4]; CA_SP: 4 mg/kg total): 0** U/6 hrs | Caspase-3 ([4]; CA_SP: 4 mg/kg total, iv and with cardioplegia): 137.3 ± 9.8 A.U. | apoptosis (cell death, Trypan blue exclusion) [5]: inhibited | IL-6 ([5]; ELISA): inhibited | NF-κB activity ([5]; ELISA of cell lysates): inhibited | inhibiting NF-κB activity [6]: most effective at inhibiting NF-κB activity
